This test deals with human TrkA receptor (Homo sapiens (Human), UniProt P04629). In words: DiscoverX PathHunter TrkA functional assay. Format: cell-based. The settings on record: U2OS cells expressing human TrkA-ProLink, Shc1-EA and p75NTR; compound 1 h, then NGF at ~80% of maximal response for 3 h; luminescence.

The record followed here is patent US9914736B2, “TrKA kinase inhibitors, compositions and methods thereof” (Merck Sharp & Dohme Corp., priority 2014, dated 2018).

pIC50: −log10 of the molar value.

By pIC50 is commonly meant −log10 of the IC50, conventionally taken in molar units.

Chain of human TrkA receptor (P04629 33-796): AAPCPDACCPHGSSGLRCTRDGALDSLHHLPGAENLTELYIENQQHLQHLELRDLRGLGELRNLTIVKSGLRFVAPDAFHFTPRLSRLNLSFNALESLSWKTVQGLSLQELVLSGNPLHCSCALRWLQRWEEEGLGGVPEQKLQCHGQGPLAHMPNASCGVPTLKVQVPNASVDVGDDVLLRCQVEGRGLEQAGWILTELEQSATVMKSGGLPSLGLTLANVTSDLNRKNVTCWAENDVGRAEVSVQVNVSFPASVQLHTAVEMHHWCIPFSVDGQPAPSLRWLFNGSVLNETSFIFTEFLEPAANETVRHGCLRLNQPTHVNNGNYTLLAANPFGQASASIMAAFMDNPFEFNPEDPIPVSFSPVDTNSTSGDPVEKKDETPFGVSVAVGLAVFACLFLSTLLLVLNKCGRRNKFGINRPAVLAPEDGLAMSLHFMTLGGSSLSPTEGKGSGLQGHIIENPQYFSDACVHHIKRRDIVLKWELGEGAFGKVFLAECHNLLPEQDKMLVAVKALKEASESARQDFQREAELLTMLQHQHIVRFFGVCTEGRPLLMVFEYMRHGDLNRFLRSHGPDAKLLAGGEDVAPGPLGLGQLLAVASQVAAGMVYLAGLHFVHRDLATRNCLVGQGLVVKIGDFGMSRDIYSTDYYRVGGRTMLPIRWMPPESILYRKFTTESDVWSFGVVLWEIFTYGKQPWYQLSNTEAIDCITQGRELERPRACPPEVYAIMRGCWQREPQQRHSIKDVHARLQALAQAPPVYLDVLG
Description: TrkA functional activity was measured using a DiscoverX PathHunter assay. In this assay, U2OS cells express the human TrkA receptor as a fusion with the weakly complementing fragment of B-galactosidase, which DiscoverX calls “Prolink (PK)”; additionally, Shc1 is fused with a larger fragment, which is called “Enzyme Acceptor (EA)”. Activation of the TrkA receptor, upon NGF addition, results in the kinase domain being phosphorylated, resulting in subsequent recruitment of Shc1-EA protein. That recruitment results in an active B-galactosidase enzyme that is detected by addition of a chemiluminescent substrate. The human p75^NTR protein was also expressed as a co-receptor for NGF.
All reagents were purchased from DiscoverX, except for the receptor agonists (NGF, BDNF, NT3) which were purchased from Peprotech. Cells were expanded and frozen into cryovials, and stored in the vapor phase of liquid nitrogen, and thawed immediately before use. Thawed cells were added to a 384-well plate at 7500 cells/well, and allowed to incubate overnight. Compound at various concentrations was added the following morning and allowed to incubate on cells for 1 h. Then, NGF was added at a concentration sufficient to elicit ˜80% of a maximal response and allowed to incubate for 3 h at ambient temperature. DiscoverX PathHunter detection reagent was then added and the plate was further incubated for 1 h in the dark. The plate was then read via luminescence on the Perkin Elmer Envision.

On to `Cn1ccc(-c2cc(C(=O)Nc3cc(CN4C(=O)CNC4=O)nn3-c3ccc(F)cc3)c(F)cc2C(F)(F)F)n1` [Compound 112, N-(3-((2,5-dioxoimidazolidin-1-yl)methyl)-1-(4-fluorophenyl)-1H-pyrazol-5-yl)-2-fluoro-5-(1-methyl-1H-pyrazol-3-yl)-4-(trifluoromethyl)benzamide], for which the pIC50 was 8.72.

In turn, `O=C(Nc1cc(Cc2n[nH]c(=O)o2)nn1-c1ccc(F)cc1)c1cc(-c2ncccn2)c(C(F)(F)F)cc1F` [Compound 113, 2-fluoro-N-(1-(4-fluorophenyl)-3-((5-oxo-4,5-dihydro-1,3,4-oxadiazol-2-yl)methyl)-1H-pyrazol-5-yl)-5-(pyrimidin-2-yl)-4-(trifluoromethyl)benzamide] gave a pIC50 of 7.82. This pIC50 is 0.90 log units lower than that of the compound before.

The compound `CNC(=O)Cc1cc(NC(=O)c2cc(-c3ccn(C)n3)c(C(F)(F)F)cc2F)n(-c2ccc(F)cc2)n1` [Compound 114, 2-fluoro-N-(1-(4-fluorophenyl)-3-(2-(methylamino)-2-oxoethyl)-1H-pyrazol-5-yl)-5-(1-methyl-1H-pyrazol-3-yl)-4-(trifluoromethyl)benzamide] showed a pIC50 of 8.62.
